Among the test systems are CCRF-CEM leukemia; HCT-15 colon; K-562 leukemia; NCI-H226 lung; OVCAR-3 ovarian; RPMI-8226 leukemia; SW-620 colon; UACC-257 melanoma.
Common to all, as to assay: growth of human tumour cells (NCI), 48 h

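In this assay, cells in 96-well plates receive the compound at five concentrations for 48 hours. Endpoints are linearly interpolated between the surrounding concentrations. Abbreviation: GI50, concentration required for 50% inhibition of growth. At the TGI there is no net growth.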

For the molecule `CCC(=O)Sc1ccccc1C(=O)Nc1ccc(Cl)cc1`, the GI50 in the assay on CCRF-CEM leukemia is 4.22 µM; in the assay on HCT-15 colon it was 7.79 µM; with K-562 leukemia, 3.83 µM; in the assay with NCI-H226 lung it was 10.4 µM; in the assay with OVCAR-3 ovarian, 6.34 µM; in the assay on RPMI-8226 leukemia, 4.32 µM. Besides, the GI50 in the assay on SW-620 colon is 3.63 µM; in the assay on UACC-257 melanoma, 31.7 µM. Also, the TGI with CCRF-CEM leukemia is above 100 µM; with HCT-15 colon, above 100 µM; with K-562 leukemia, above 100 µM; in the assay on NCI-H226 lung, 54.8 µM; with OVCAR-3 ovarian it was 26.1 µM; with RPMI-8226 leukemia, 29.3 µM. The TGI with SW-620 colon was 25.8 µM; in the assay with UACC-257 melanoma, above 100 µM.

Regarding `CC1(C)CCC(S(=O)(=O)c2ccc3c(c2)/C(=N\O)c2cc(S(=O)(=O)N4CCC(O)(c5cccc(C(F)(F)F)c5)CC4)ccc2-3)CC1`, the GI50 in the assay with CCRF-CEM leukemia is 0.0291 µM; in the assay on HCT-15 colon, 0.0694 µM; with K-562 leukemia it was 0.0219 µM; with NCI-H226 lung it was 0.0292 µM; in the assay with OVCAR-3 ovarian, 0.0211 µM; in the assay with RPMI-8226 leukemia it was 0.0255 µM. For the same molecule, the GI50 with SW-620 colon was 0.0154 µM; in the assay with UACC-257 melanoma, 0.0665 µM. The TGI was determined as 0.0906 µM in the assay with CCRF-CEM leukemia; 4.52 µM in the assay on HCT-15 colon; 0.0492 µM in the assay with K-562 leukemia; 0.0988 µM in the assay on NCI-H226 lung; 0.0442 µM in the assay with OVCAR-3 ovarian; 0.09 µM in the assay on RPMI-8226 leukemia. Moreover, the TGI in the assay with SW-620 colon was 0.0319 µM; with UACC-257 melanoma it was 1.11 µM.

Turning to `OCC1SC(n2cnc3cncnc32)C(O)C1O` (configuration not stated), the GI50 with CCRF-CEM leukemia, with HCT-15 colon, in the assay with K-562 leukemia, in the assay on NCI-H226 lung, in the assay on OVCAR-3 ovarian and in the assay on RPMI-8226 leukemia was above 100 µM each time. The GI50 in the assay with SW-620 colon and with UACC-257 melanoma was above 100 µM in each case. Also, the TGI in the assay with CCRF-CEM leukemia, in the assay with HCT-15 colon, with K-562 leukemia, in the assay with NCI-H226 lung, in the assay with OVCAR-3 ovarian and in the assay with RPMI-8226 leukemia was above 100 µM in each case. The TGI in the assay with SW-620 colon and in the assay with UACC-257 melanoma was above 100 µM throughout.

For the molecule `COC(=O)c1cnc2nc(N3CCOCC3)[nH]n2c1=O`, the TGI in the assay on CCRF-CEM leukemia, in the assay on HCT-15 colon, in the assay with K-562 leukemia, in the assay on NCI-H226 lung, with OVCAR-3 ovarian and in the assay on RPMI-8226 leukemia was above 100 µM each time. Further, the TGI in the assay with SW-620 colon and in the assay with UACC-257 melanoma was above 100 µM in each case.

Turning to `COc1ccc(C(CC(=O)c2ccccc2)C(C(=O)c2ccccc2)C(c2ccc(OC)cc2)C2C(=O)NC(=O)NC2=O)cc1` (configuration not stated), the GI50 in the assay with CCRF-CEM leukemia was 12.9 µM; with HCT-15 colon, 21.9 µM; in the assay on K-562 leukemia it was 39.1 µM; in the assay with NCI-H226 lung, 20 µM; in the assay on OVCAR-3 ovarian, 11.9 µM; in the assay on RPMI-8226 leukemia, 13.8 µM. Also, the GI50 is 26.3 µM in the assay with SW-620 colon and 14.1 µM in the assay with UACC-257 melanoma. The TGI with CCRF-CEM leukemia is above 100 µM; in the assay with HCT-15 colon, above 100 µM; in the assay on K-562 leukemia, above 100 µM; with NCI-H226 lung, 62 µM; in the assay with OVCAR-3 ovarian it was 44.4 µM; with RPMI-8226 leukemia it was above 100 µM. Further, the TGI in the assay with SW-620 colon was above 100 µM; with UACC-257 melanoma, 69.3 µM.

For `C=C1C(=O)O[C@H]2[C@H]1CC/C(COC(=O)OCCCCCOC(=O)OC/C1=C/CC[C@@]3(C)O[C@H]3[C@H]3OC(=O)C(=C)[C@@H]3CC1)=C\CC[C@@]1(C)O[C@@H]21`, the GI50 in the assay on CCRF-CEM leukemia was 0.321 µM; with HCT-15 colon, 0.252 µM; with K-562 leukemia it was 0.267 µM; with NCI-H226 lung, 1.64 µM; in the assay on OVCAR-3 ovarian, 0.273 µM; in the assay on RPMI-8226 leukemia, 0.359 µM. Further, the GI50 in the assay on SW-620 colon is 0.285 µM; in the assay with UACC-257 melanoma, 0.661 µM. The TGI is 1.14 µM with CCRF-CEM leukemia; 0.822 µM with HCT-15 colon; 1.08 µM in the assay on K-562 leukemia; 3.42 µM with NCI-H226 lung; 0.823 µM with OVCAR-3 ovarian; 1.47 µM with RPMI-8226 leukemia. The TGI is 0.902 µM in the assay with SW-620 colon and 2.31 µM in the assay on UACC-257 melanoma.

For `COc1cc2c(cc1OC)C13CCN4CC5=CCOC(CC(=O)O)C(C5CC41)C3N2` (configuration not stated), the TGI with CCRF-CEM leukemia, in the assay on HCT-15 colon, in the assay with K-562 leukemia, in the assay on NCI-H226 lung, in the assay on OVCAR-3 ovarian and with RPMI-8226 leukemia was above 100 µM throughout. Also, the TGI with SW-620 colon and in the assay on UACC-257 melanoma was above 100 µM each time.

`O=C1c2ccn(CCCCN3CCOCC3)c2C(=O)c2c1c(O)c1ccccc1c2O`: the GI50 in the assay with CCRF-CEM leukemia is 2.75 µM; in the assay on HCT-15 colon, 3.82 µM; with K-562 leukemia, 2 µM; in the assay with NCI-H226 lung, 5.32 µM; in the assay on OVCAR-3 ovarian it was 1.62 µM; with RPMI-8226 leukemia it was 3.53 µM. Besides, in the assay on UACC-257 melanoma, the GI50 was 8.43 µM. For the same molecule, the TGI with CCRF-CEM leukemia is above 100 µM; in the assay with HCT-15 colon, 25.5 µM; in the assay with K-562 leukemia, 4.53 µM; in the assay on NCI-H226 lung, 42.5 µM; in the assay on OVCAR-3 ovarian, 8.77 µM; in the assay with RPMI-8226 leukemia it was above 100 µM. The same molecule displayed a TGI in the assay on UACC-257 melanoma of 27.4 µM.

On to `O=C1Nc2ccc(Cl)cc2/C1=C\c1c(-c2ccc(F)cc2)nc2ccccn12`, for which the GI50 in the assay with CCRF-CEM leukemia was 2.31 µM; with HCT-15 colon, 3.15 µM; in the assay with NCI-H226 lung, 2.07 µM; with OVCAR-3 ovarian, 1.89 µM; in the assay with RPMI-8226 leukemia, 2.25 µM; with SW-620 colon, 3 µM. Also, the GI50 in the assay on UACC-257 melanoma was 3.11 µM. Besides, the TGI stood at 7.24 µM with CCRF-CEM leukemia; 16.2 µM in the assay with HCT-15 colon; 5.21 µM with NCI-H226 lung; 3.8 µM with OVCAR-3 ovarian; 7.86 µM in the assay on RPMI-8226 leukemia; 11.7 µM in the assay on SW-620 colon. Further, the TGI in the assay on UACC-257 melanoma is 16.3 µM.

On to `COc1ccc(C2C3=C(NC(=O)C2C#N)c2ccc4ccccc4c2OCC3)cc1` (configuration not stated), for which the GI50 with CCRF-CEM leukemia is above 100 µM; in the assay on HCT-15 colon it was above 100 µM; in the assay on K-562 leukemia, above 100 µM; with OVCAR-3 ovarian it was 70.4 µM; in the assay with RPMI-8226 leukemia, above 100 µM; in the assay with SW-620 colon, above 100 µM. Besides, the GI50 in the assay with UACC-257 melanoma was 36.5 µM. Besides, the TGI in the assay on CCRF-CEM leukemia, in the assay on HCT-15 colon, in the assay on K-562 leukemia, in the assay on OVCAR-3 ovarian, in the assay with RPMI-8226 leukemia and in the assay with SW-620 colon was above 100 µM throughout. The molecule also gave a TGI in the assay with UACC-257 melanoma of 82.8 µM.

On to `COc1cc2c(-c3nc4cc(Cl)c(F)cc4s3)cc(=O)oc2c(C)c1OC`, for which the values for the GI50 in the assay with NCI-H226 lung and in the assay with UACC-257 melanoma were 1.72 µM and 1.38 µM, respectively. Also, the TGI is 3.99 µM in the assay on NCI-H226 lung and 2.89 µM with UACC-257 melanoma.

The values above are taken from PubChem BioAssay (NCI).
